Experimental data published in article PMC7352759, “S(+)-(2E)-N-(2-Hydroxypropyl)-3-Phenylprop-2-Enamide (KM-568): A Novel Cinnamamide Derivative with Anticonvulsant Activity in Animal Models of Seizures and Epilepsy” (International Journal of Molecular Sciences, 2020).

Experiments:
[1] = test system: rats; experiment: Maximal electroshock test (MES), rats; format: in vivo; settings: for ED50: Rattus norvegicus, 95% confidence interval in parentheses
Description: In vivo activity testing was performed at the Epilepsy Branch, National Institute of Neurological Disorders and Stroke, National Institutes of Health (NIH, Bethesda, USA) within the Anticonvulsant Screening Program (ASP) (currently known as the Epilepsy Therapy Screening Program (ETSP)). Pharmacological evaluation was planned and performed in accordance with the Institute of Laboratory Resources polices on the humane care of laboratory animals and approved by the University of Utah’s Institutional Animal Care and Use Committee (IACUC). All testing protocols were previously published as well as they are available on the NIH website. In the tests, albino mice Carworth Farms No.1 (CF-1) (Charles River), C57/Bl6 mice (Charles River), Frings mice (University of Utah) or male rats Sprague–Dawley (Charles River) were used. All animals were housed, fed, and handled in a manner consistent with the recommendations in the National Council Publication, ‘Guide for the Care and Use of Laboratory animals’ [51]. The tested compound was suspended in 0.5% methylcellulose.
After intraperitoneal or oral administration of compound KM-568 at certain dose, an alternating current at 60 Hz and 50 mA (mice) or 150 mA (rats) was delivered for 0.2 sec via corneal electrodes to induce seizures. Prior to each stimulation, a drop of 0.5% tetracaine hydrochloride in saline was applied to cornea. Protection was defined as the abolition of the hindlimb tonic extension of the seizures.

[2] = test system: corneal kindled mice; experiment: Corneal kindled seizure model in mice; format: in vivo; settings: for Average Seizure Score / Results (protected/tested animals): corneal kindled mice, i.p.
Description: Mice were stimulated via corneal electrodes (3 mA, 60 Hz, 3 sec) for an average of 12 days, 4 h apart. Prior to each stimulation, a drop of 0.5% tetracaine hydrochloride in saline was applied to the cornea. After development of five consecutive seizure stages at level 5 according to the Racine scale, animals were considered kindled. The groups of 8 mice received an intraperitoneal injection of appropriate doses of KM-568. […] Mice were scored as protected if the seizure score was less than or equal to three and not protected if the seizure score was more than three, based on the Racine scoring system.

With `C[C@H](O)CNC(=O)/C=C/c1ccccc1` [KM-568, S(+)-(2E)-N-(2-hydroxypropyl)-3-phenylprop-2-enamide] the ED50 ([1]; ip, 0.25 h) was 27.6 mg/kg, the ED50 ([1]; po, 1.0 h) was 30.8 mg/kg and the “MES Results (protected/tested animals)” value ([1]; i.p., 15 mg/kg, 0.25 h) was 1/8. The “MES Results (protected/tested animals)” value ([1]; i.p., 22 mg/kg, 0.25 h) was 3/8, the “MES Results (protected/tested animals)” value ([1]; i.p., 30 mg/kg, 0.25 h) was 5/8 and the “MES Results (protected/tested animals)” value ([1]; i.p., 60 mg/kg, 0.25 h) was 7/8. For the same compound, the “MES Results (protected/tested animals)” value ([1]; p.o., 20.0 mg/kg, 1.0 h) was 1/8, the “MES Results (protected/tested animals)” value ([1]; p.o., 30.0 mg/kg, 1.0 h) was 3/8 and the “MES Results (protected/tested animals)” value ([1]; p.o., 35.0 mg/kg, 1.0 h) was 5/8. For the same compound, the “MES Results (protected/tested animals)” value ([1]; p.o., 40.0 mg/kg, 1.0 h) was 7/8, the ED50 ([2]; Mus musculus, ip, mice, 0.5 h (table title)) was 79.2 mg/kg and the “Average Seizure Score” value ([2]; 57 mg/kg) was 4.0. The “Results (protected/tested animals)” value ([2]; 57 mg/kg) was 1/8, the “Average Seizure Score” value ([2]; 84 mg/kg) was 3.625 and the “Results (protected/tested animals)” value ([2]; 84 mg/kg) was 5/8. For the same compound, the “Average Seizure Score” value ([2]; 115 mg/kg) was 0.625 and the “Results (protected/tested animals)” value ([2]; 115 mg/kg) was 7/8.
